From patent US12390552B2, “Self-assembling peptide gel formulation and methods of use” (Arch Biosurgery, Inc., priority 2020, dated 2025)
“Also recorded” adds a separate entry of the source.

How the values were obtained:
[1] = tested on: stomach and esophagus of pigs (submucosal space); assay: Submucosal cushion/lift and hemostasis in endoscopic resection procedures in a porcine model; type: in vivo
Experimental: Solutions of (RADA)4 (RADARADARADARADA; SEQ ID NO: 1) in water were prepared. Concentrations of (RADA)4 (SEQ ID NO: 1) were between from 1% and 3% w/v. Methylene blue or indigo carmine dye (0.1 to 0.4%) was added to the solution in some experiments, and excluded from the solution in other experiments.
Pigs were randomly assigned to control or experimental groups. Animals were anesthetized. Multiple (>20) endoscopic procedures (EMD and ESD) were performed in different areas of the stomach of pigs, including the pylorus, and the esophagus, including the sphincter. In some experiments, polyps had previously been created by applying bands to the mucosa.
The (RADA)4 (SEQ ID NO: 1) solutions (experimental animals) or saline or ELEVIEW™ (control animals) were administered into the submucosal space through 2.2 mm channel diameter, 230 cm long catheters that have either 25 gauge needle tips or spray tips on the end to form a cushion. In some experiments, catheters having different diameters were used as well as multiple internal channels. The products were delivered from a prefilled syringe or mixed from a kit prior to delivery.

[2] = Gel formation of (RADA)4 solutions mixed with dextran sulfate solution; type: physicochemical; settings: 1%-3% solutions mixed with dextran sulfate solution (0.5 and 1%)

Q: For RADARADARADARADA [(RADA)4], which “duration of submucosal lift” value ([1]; pig gastric antrum, delivered through 25G endoscopic injection needle) is on record?
A: > 2 h

Q: And the “use with clips as sealant at post-polypectomy site” value ([1]; pig, applied following application of clips)?
A: useful in conjunction with clips as a potential sealant

Q: And the “hemostasis in actively bleeding lesions” value ([1]; pig, applied topically or injected into mucosa near the bleeding site, with or without visualizing agent)?
A: provide hemostasis in actively bleeding lesions; also recorded: stopped bleeding promptly, typically within seconds

Q: What about the “durability of cushions versus controls” value ([1]; pig, compared with ELEVIEW™ and saline) of the same sequence?
A: lasting longer than ELEVIEW™ and saline controls

Q: And the “bleeding after polyp removal / tissue resection” value ([1]; pig, submucosal injection before dissection (prophylactic hemostasis))?
A: no visible bleeding was observed following polyp removal; also recorded: minimal to no bleeding in most lesions was observed

Q: And the “time over which the tunnel opening could easily be found after removing and reinserting equipment” value ([1]; pig, submucosal tunnel through cushion)?
A: typically more than an hour

Q: And the gel formation [2]?
A: formed space occupying gels
